Laboratory results from patent US6406706B1, “Use of α- and β-santalols major constituents of sandal wood oil, in the treatment of warts, skin blemishes and other viral-induced tumors” (Haque, Inc., priority 1996, dated 2002).

System: warts
Conditions: human, in vivo
Text: In accordance with the method according to this invention, regular use of the α- and β-santalols is meant to mean application of the α- and β-santalols at least once a day to the body surface containing the viral-induced tumors (i.e., warts and Molluscom contagiosum tumors). A further embodiment of the method of this invention comprises washing the affected area of the body with the soap, rinsing the area, placing a small amount of the α- and β-santalols on the tumor to be treated and then gently rubbing to facilitate penetration. […] The subject was advised to rub 1 drop of the santalol mixture after washing their hand with regular soap and water. The subject was to use a loofah sponge to soften the surface of the warts prior to the application of the santalol mixture. […] A subject had three warts on their right and left index fingers for over five years. […] The subject was advised to wash the warts with soap and water using a loofah sponge to soften the surface of the warts, prior to applying one drop of the santalol mixture on the warts and rubbing gently. The treatment was to occur once a day. […] The subject was asked to wash the warts on their face with soap and water and then apply the santalols with a cotton swab. […] After the resolution of the facial warts, the subject's non-facial warts were treated with the santalols.

With α- and β-santalol [santalol mixture] the “local side effects (redness, irritation or pain)” value was “no evidence of any local side effects”, the “local skin irritation (redness, pain)” value was “no evidence of any local skin irritation” and the “skin irritation, burning or redness at sites of application” value was “no evidence”. The tolerability of treatment was “well tolerated”.
